Data published in ChEMBL document CHEMBL1201862, “PubChem BioAssay data set” (2004).
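Compound exposure: 48 hours, 5 concentrations, 96-well plates. GI50 marks 50% less growth.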 Active and inactive are the calls of the source. Cut-off read from the data, not from the text of the source: active = GI50 up to about 1.1 µM and inactive = higher.

Key:
Test in all cases: NCI anticancer screen, dose series, 48 h
[1] = tested on: CAKI-1
[2] = tested on: A549
[3] = tested on: OVCAR-5
[4] = tested on: SN12C
[5] = tested on: SK-MEL-28
[6] = tested on: ACHN
[7] = tested on: NCI-H226
[8] = tested on: RXF 393
[9] = tested on: SNB-75
[10] = tested on: MOLT-4
[11] = tested on: M14
[12] = tested on: KM12
[13] = tested on: OVCAR-8
[14] = tested on: HCC 2998
[15] = tested on: UO-31
[16] = tested on: SK-MEL-2
[17] = tested on: EKVX

Measured: GI50

COc1ccc2[nH]c3c(C)c4c(c(C)c3c2c1)CN(C)CC4
inactive: [1] 18.5 µM | [2] 17.7 µM | [3] 23.7 µM | [4] 16.3 µM | [5] 14.2 µM | [6] 18.8 µM | [7] 15.8 µM | [8] 19.3 µM | [9] 18 µM | [10] 18.5 µM | [11] 16.3 µM | [12] 13.9 µM | [13] 11.9 µM | [14] 16.9 µM | [15] 16.4 µM | [16] 17.2 µM

CC#CC#C/C=C1\C=CC2(OC=CC2O)O1 (stereo not drawn)
inactive: [1] 14.8 µM | [17] > 9.86 µM | [2] 13.1 µM | [3] 4.23 µM | [4] > 23.3 µM | [5] 13.3 µM | [6] > 23.3 µM | [7] > 15.8 µM | [8] 8.55 µM | [9] > 19.1 µM | [10] 10.5 µM | [11] > 17.8 µM | [12] 3.32 µM | [13] 14.3 µM | [14] > 16.2 µM | [15] 12.2 µM | [16] > 17.8 µM

CCS(CC)(CC)CC1CCCC2=CCC(P(=O)(c3ccccc3)c3ccccc3)CC21 (stereo not drawn)
inactive: [1] 10 µM | [17] 14.3 µM | [2] 4.89 µM | [3] 15.6 µM | [4] 11.9 µM | [5] 14.4 µM | [6] 9.02 µM | [7] 18.7 µM | [8] 9.66 µM | [9] 11 µM | [10] 4.43 µM | [11] 12.2 µM | [12] 11.4 µM | [13] 11.4 µM | [14] 9.25 µM | [15] 6.32 µM | [16] 14.2 µM

Cc1ccc(S(=O)(=O)Nc2ccccc2C(C)(C)C)cc1
inactive: [1] 18.7 µM | [17] 33.2 µM | [2] 27.7 µM | [3] 34.6 µM | [5] 19.7 µM | [6] 28.1 µM | [7] 22.1 µM | [8] 6.31 µM | [9] 35.9 µM | [10] 20.9 µM | [11] > 10 µM | [12] 17.2 µM | [13] 29.6 µM | [14] 42.8 µM | [15] 18.6 µM | [16] 26.7 µM

C(=C1/CCCCC([n+]2ccccc2)=N1)/c1ccccc1
inactive: [1] > 100 µM | [17] > 100 µM | [2] > 100 µM | [3] > 100 µM | [4] > 100 µM | [5] > 100 µM | [6] > 100 µM | [7] > 100 µM | [8] > 100 µM | [9] > 100 µM | [10] > 100 µM | [11] > 100 µM | [13] > 100 µM | [14] > 100 µM | [15] > 100 µM | [16] > 100 µM

O=C1OC(c2ccccc2)=N/C1=C/NC(CO)C(=O)O (stereo not drawn)
inactive: [1] > 100 µM | [17] > 100 µM | [2] > 100 µM | [3] > 100 µM | [5] > 100 µM | [6] > 100 µM | [7] > 100 µM | [8] > 100 µM | [9] > 100 µM | [11] > 100 µM | [12] > 100 µM | [13] > 100 µM | [14] > 100 µM | [15] > 100 µM | [16] > 100 µM

O=C1c2ccccc2C(=O)c2c(O)c(NCCNCCO)cc(O)c21
inactive: [1] 2.08 µM | [17] 2.47 µM | [2] 3.55 µM | [3] 10.2 µM | [4] 3.99 µM | [5] 5.11 µM | [6] 2.17 µM | [7] 3.83 µM | [8] 4.74 µM | [9] 4.52 µM | [10] 3.02 µM | [11] 4.42 µM | [12] 3.72 µM | [13] 3.01 µM | [14] 3.78 µM | [15] 2.96 µM | [16] 5.07 µM

CC(=O)O/N=C(/C)c1ccccc1O
inactive: [1] > 100 µM | [17] > 100 µM | [2] > 100 µM | [3] > 100 µM | [4] > 100 µM | [5] > 100 µM | [6] > 100 µM | [7] > 100 µM | [8] > 100 µM | [9] > 100 µM | [10] > 100 µM | [11] > 100 µM | [12] > 100 µM | [13] > 100 µM | [14] > 100 µM | [15] > 100 µM | [16] > 100 µM

C=CC[C@H](C[C@H](C[C@H](C[C@H](C[C@H](C[C@H](C[C@H](C[C@H](C[C@H](C[C@H](CCCCC)OC)OC)OC)OC)OC)OC)OC)OC)OC)OC
inactive: [1] > 100 µM | [17] > 100 µM | [2] > 100 µM | [3] > 100 µM | [4] > 100 µM | [5] > 100 µM | [6] > 100 µM | [7] 62.2 µM | [8] 66.4 µM | [9] 58.1 µM | [10] 41.8 µM | [11] > 100 µM | [12] > 100 µM | [13] > 100 µM | [14] > 100 µM | [15] 50.7 µM | [16] > 100 µM
